Measurements: patent US20240287351A1, “ENGINEERED MULTIFUNCTIONAL PARTICLES AND THIN DURABLE COATINGS COMPRISING CROSSLINKED SILANE POLYMERS CONTAINING UREA” (Bar-Ilan University, priority 2020, published 2024)

Tested on: microorganisms
Assay: Antimicrobial activity after organic materials and repetitive microbial loading cycles
Details: after exposure to organic materials and repetitive microbial loading cycles

## [Na+].[O-]Cl [bleach, sodium hypochlorite]
  retention of antimicrobial activity: losing its biocidal activity rapidly
